Test [1] addresses T1, FXR (Homo sapiens, UniProt Q96RI1).
T1 sequence (Q96RI1 1-486): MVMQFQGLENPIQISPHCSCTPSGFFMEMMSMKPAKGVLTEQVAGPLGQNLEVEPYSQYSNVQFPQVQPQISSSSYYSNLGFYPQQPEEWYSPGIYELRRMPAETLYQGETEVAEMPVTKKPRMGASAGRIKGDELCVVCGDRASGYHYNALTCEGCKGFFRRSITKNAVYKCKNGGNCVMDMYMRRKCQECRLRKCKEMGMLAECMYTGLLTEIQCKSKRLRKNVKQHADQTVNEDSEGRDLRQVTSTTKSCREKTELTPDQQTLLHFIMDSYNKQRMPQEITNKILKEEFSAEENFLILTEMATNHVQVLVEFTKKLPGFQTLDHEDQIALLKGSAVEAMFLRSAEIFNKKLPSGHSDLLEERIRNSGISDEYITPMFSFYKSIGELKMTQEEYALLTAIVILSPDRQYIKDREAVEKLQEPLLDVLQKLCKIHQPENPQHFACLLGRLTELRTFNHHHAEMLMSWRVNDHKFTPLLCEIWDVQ
T1 sequence (P19793 1-462 partner): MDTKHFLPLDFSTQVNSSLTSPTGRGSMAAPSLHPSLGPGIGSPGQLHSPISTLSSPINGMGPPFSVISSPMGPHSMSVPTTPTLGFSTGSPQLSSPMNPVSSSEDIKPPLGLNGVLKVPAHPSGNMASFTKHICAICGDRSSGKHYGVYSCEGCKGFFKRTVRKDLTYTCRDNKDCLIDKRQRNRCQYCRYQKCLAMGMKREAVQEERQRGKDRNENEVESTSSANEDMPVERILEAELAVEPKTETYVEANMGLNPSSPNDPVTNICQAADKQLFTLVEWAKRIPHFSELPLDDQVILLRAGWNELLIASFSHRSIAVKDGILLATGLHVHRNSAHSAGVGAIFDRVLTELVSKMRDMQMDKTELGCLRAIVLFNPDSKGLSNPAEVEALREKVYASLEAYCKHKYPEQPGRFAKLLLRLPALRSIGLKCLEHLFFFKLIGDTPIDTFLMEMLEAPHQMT
The test can be described thus: In Vitro FXR Assay (TK), luciferase reporter in transfected CV-1 cells. It is filed as cell-based. Also noted: expressed in transfected cells; host or cells: CV-1 cells. As to conditions: CV-1 cells transfected with hFXR, hRXR, TK-ECRE-luc; 18 hrs incubation; luminescence; maximum efficacy <25% of Fexaramine control also classified '+'. The procedure:
Example B-2: In Vitro FXR Assay (TK)
CV-1 cells were seeded at a density of 2,000,000 cells in a T175 flask with DMEM+10% charcoal double-stripped FBS and incubated at 37° C. in 5% CO2 for 18 h (0/N).
After 18 h of incubation, the medium in the T175 flask was changed with fresh DMEM+10% charcoal super-stripped serum. In a polypropylene tube, 2500 μL OptiMEM (Life Technologies, Cat #31985-062) was combined with expression plasmids for hFXR, hRXR, TK-ECRE-luc and pCMX-YFP. The tube was then briefly vortexed and incubated at room temperature for 5 minutes. Transfection reagent (X-tremeGENE HP from Roche, Cat #06 366 236 001) was added to the OptiMEM/plasmid mixture vortexed and incubated at room temperature for 20 minutes. Following incubation, the transfection reagent/DNA mixture complex was added to cells in the T175 flask and the cells were incubated at 37° C. in 5% CO2 for 18 h (O/N).
Compounds were serially diluted in DMSO and added to transfected CV-1 cells. The cells were then incubated for 18 hrs. The next day cells were lysed and examined for luminescence.
In general terms: In a reporter assay the amount or activity of a reporter protein is the signal.

The target of test [2] is T1, FXR. The test can be described thus: In Vitro FXR Assay (PGL3), luciferase reporter in transfected CV-1 cells. Also noted: plasmids XPD90Gal pCMXhFXRfl, pCMXhRXRfl+PGL3-ECRE*6-luc+CMX-YFP; expressed in transfected cells; host or cells: CV-1 cells. As to conditions: CV-1 cells transfected with hFXR, hRXR, PGL3-ECRE*6-luc; 18 hrs incubation; luminescence. It is filed as cell-based. The procedure: Example B-1: In Vitro FXR Assay (PGL3)
CV-1 cells were seeded at a density of 2,000,000 cells in a T175 flask with DMEM+10% charcoal double-stripped FBS and incubated at 37° C. in a 5% CO2 for 18 h (0/N).
After 18 h of incubation, the medium in the T175 flask was changed with fresh DMEM+10% charcoal super-stripped serum.
To prepare the transfection reaction mixture, the transfection reagent (X-tremeGENE HP from Roche, Cat #06 366 236 001) was added in to a 1.5 mL microcentrifuge tube labelled “A” at a ratio of 1:3 (DNA in μg: transfection reagent in μL). OptiMEM medium (Life Technologies, Cat #31985-062) was added accordingly to provide a total volume of 1 mL. The transfection reaction mixture was then briefly vortexed and incubated at room temperature for 5 minutes.
In a separate 1.5 mL microcentrifuge tube labelled “B”, 100 μL OptiMEM and plasmids XPD90Gal pCMXhFXRfl, pCMXhRXRfl+PGL3-ECRE*6-luc+CMX-YFP in the ratio 2 μg: 2 μg:18 μg:3 μg were added. This microcentrifuge tube “B” was then briefly vortexed and incubated at room temperature for 5 minutes.
The total volume in tube labelled “A” was then transferred in to tube labelled “B.” The mixture was then briefly vortexed and the transfection:DNA complex was then incubated for about 15-20 minutes at room temperature.
Following incubation, the transfection reagent/DNA mixture complex was then added to cells in the T175 flask and the cells were incubated at […] (0/N) at 37° C. in 5% CO2.
In a 96 well plate, a half logarithmic serial dilution was prepared. OptiMEM was used as the diluent. Using any of one of the compounds described herein, a compound stock solution of 10 mM was prepared. An initial 1:100 dilution was made into the first well for a final concentration of 100 μM. The final concentrations in the 96-well plate was prepared by using a multichannel pipette to transfer 5 μL of the diluted compound to 384-well plate in quadruplicate.
Cells in T175 flask were trypsinized and cells were resuspending in 40 mL phenol red free DMEM+10% charcoal super-stripped FBS. Typically, one T175 flask was sufficient to seed two 384 well plates. CV-1 cells were seeded at 45 μL cell suspension/well using a multi-channel pipet or a 384 multidrop dispenser. The cells were then incubated for 18 hrs, overnight.
After removing the plates from the incubator, the medium was flicked out of plate and 384 well plate was turned upside down onto paper towel. The remaining medium was gently tapped out. 15 μL lysis buffer was then added to each well using a multichannel pipet or a 384 well multi-drop dispenser. After incubation for 10 minutes at room temperature on shaker, 30 μL Luciferase buffer was added to each well. Luminescence counts were taken immediately using the Perkin Elmer Envision.
The ability of the compounds disclosed herein to […] FXR activity was quantified and the respective EC50 value was determined. Fex=fexaramine.

One may read the EC50 as the midpoint of the concentration-response curve. A lower EC50 goes with higher potency in that assay.

Some results are limits rather than exact numbers.

In test [1], `COC(=O)/C=C/c1cccc(N(Cc2ccc(-c3ccc(N(C)C)cc3)nc2)C(=O)C2CCCCC2)c1` [Compound 1, (E)-Methyl 3-(3-(N-((6-(4-(dimethylamino)phenyl)pyridin-3-yl)methyl)cyclohexanecarboxamido)phenyl)acrylate] registered an EC50 of 1000 to 10000 nM. For the same compound, the “Cmpd/Fex (ratio of the EC50 for the test compound relative to the EC50 of the Fexaramine control)” value in test [2] is listed as “+++ (‘+++’ means Cmpd/Fex <10)”.

On to `COC(=O)/C=C/c1cccc(N(CC2CCN(c3ccc(N(C)C)cc3)CC2)C(=O)C2CCCCC2)c1` [Compound 2, (E)-Methyl 3-(3-(N-((1-(4-(dimethylamino)phenyl)piperidin-4-yl)methyl)cyclohexanecarboxamido)phenyl)acrylate], for which, in test [1], the EC50 was no more than 1000 nM. For the same compound, the “Cmpd/Fex (ratio of the EC50 for the test compound relative to the EC50 of the Fexaramine control)” value in test [2] was “+++ (‘+++’ means Cmpd/Fex <10)”.

The compound `COC(=O)/C=C/c1cccc(N(C[C@@H]2CCN(c3ccc(N(C)C)cc3)C2)C(=O)C2CCCCC2)c1` [Compound 3, (R,E)-Methyl 3-(3-(N-((1-(4-(dimethylamino)phenyl)pyrrolidin-3-yl)methyl)cyclohexanecarboxamido)phenyl) acrylate] returned an EC50 in test [1] of no less than 10000 nM. For the same compound, the “Cmpd/Fex (ratio of the EC50 for the test compound relative to the EC50 of the Fexaramine control)” value in test [2] was “+ (‘+’ means Cmpd/Fex >100)”.

In test [1], `COC(=O)/C=C/c1cccc(N(C[C@H]2CCN(c3ccc(N(C)C)cc3)C2)C(=O)C2CCCCC2)c1` [Compound 4, (S,E)-Methyl 3-(3-(N-((1-(4-(dimethylamino)phenyl)pyrrolidin-3-yl)methyl)cyclohexanecarboxamido)phenyl) acrylate] displayed an EC50 of 1000 to 10000 nM. In test [2], the “Cmpd/Fex (ratio of the EC50 for the test compound relative to the EC50 of the Fexaramine control)” value is recorded as “++ (‘++’ means Cmpd/Fex >10 & <100)”.

For the compound `COC(=O)/C=C/c1cccc(N(CC2CN(c3ccc(N(C)C)cc3)C2)C(=O)C2CCCCC2)c1` [Compound 4.1, (E)-Methyl 3-(3-(N-((1-(4-(dimethylamino)phenyl)azetidin-3-yl)methyl)cyclohexanecarboxamido)phenyl) acrylate], the EC50 in test [1] was no less than 10000 nM.

As to `COC(=O)/C=C/c1cccc(N(CC2CCN(c3ccc(C)cc3)CC2)C(=O)C2CCCCC2)c1` [Compound 5, (E)-Methyl 3-(3-(N-((1-(p-tolyl)piperidin-4-yl)methyl)cyclohexanecarboxamido)phenyl)acrylate], the EC50 in test [1] was no more than 1000 nM. In test [2], the “Cmpd/Fex (ratio of the EC50 for the test compound relative to the EC50 of the Fexaramine control)” value is reported as “+++ (‘+++’ means Cmpd/Fex <10)”.

Consider `COc1ccc([C@H]2CC[C@H](CN(C(=O)C3CCCCC3)c3cccc(/C=C/C(=O)O)c3)CC2)cc1C` [Compound 6.1, trans-(E)-3-(3-(N-((4-(4-Methoxy-3-methylphenyl)cyclohexyl)methyl)cyclohexanecarboxamido)phenyl)acrylic acid], for which, in test [1], the EC50 is 1000 to 10000 nM.

In test [1], `COC(=O)/C=C/c1cccc(N(C[C@H]2CC[C@H](c3ccc(OC)c(C)c3)CC2)C(=O)C2CCCCC2)c1` [Compound 8, trans-(E)-Methyl 3-(3-(N-((4-(4-methoxy-3-methylphenyl)cyclohexyl)methyl)cyclohexanecarboxamido)phenyl)acrylate] had an EC50 of no more than 1000 nM.

In test [1], `COC(=O)/C=C/c1cccc(N(C[C@H]2CC[C@H](c3ccc(OC)c(C)c3)CC2)C(=O)CC(C)(C)C)c1` [Compound 9, trans-(E)-Methyl 3-(3-(N-((4-(4-methoxy-3-methylphenyl)cyclohexyl)methyl)-3,3-dimethylbutanamido)phenyl)acrylate] came in with an EC50 of no more than 1000 nM.

In test [1], `COc1ccc([C@H]2CC[C@H](CN(C(=O)C3CCCCC3)c3cccc(/C=C/C(=O)OC(C)C)c3)CC2)cc1C` [Compound 10, trans-(E)-Isopropyl 3-(3-(N-((4-(4-methoxy-3-methylphenyl)cyclohexyl)methyl)cyclohexanecarboxamido)phenyl)acrylate] displayed an EC50 of no more than 1000 nM.

For the compound `COc1ccc([C@H]2CC[C@H](CN(C(=O)CC(C)(C)C)c3cccc(/C=C/C(=O)OC(C)C)c3)CC2)cc1C` [Compound 11, trans-(E)-Isopropyl 3-(3-(N-((4-(4-methoxy-3-methylphenyl)cyclohexyl)methyl)-3,3-dimethylbutanamido)phenyl)acrylate], in test [1], the EC50 was no more than 1000 nM.

Consider `COC(=O)/C=C/c1cccc(N(C[C@H]2CC[C@@H](c3ccc(OC)c(C)c3)CC2)C(=O)C2CCCCC2)c1` [Compound 12, cis-(E)-Methyl 3-(3-(N-((4-(4-methoxy-3-methylphenyl)cyclohexyl)methyl)cyclohexanecarboxamido)phenyl)acrylate], for which the concentration for a half-maximal effect (EC50) in test [1] is no less than 10000 nM.

As for `COc1ccc([C@H]2CC[C@H](CN(c3cccc(/C=C/C(=O)OC(C)C)c3)C(=O)[C@H]3CC[C@H](O)CC3)CC2)cc1C` [Compound 13, trans-(E)-Isopropyl 3-(3-(trans-4-hydroxy-N-((4-(4-methoxy-3-methylphenyl)cyclohexyl)methyl)cyclohexanecarboxamido)phenyl)acrylate], the concentration giving a half-maximal response (EC50) in test [1] was no more than 1000 nM.

In test [1], `COC(=O)/C=C/c1cccc(N(C[C@H]2CC[C@H](c3ccc(OC)c(C)c3)CC2)C(=O)[C@H]2CC[C@H](O)CC2)c1` [Compound 14, trans-(E)-Methyl 3-(3-(trans-4-hydroxy-N-((4-(4-methoxy-3-methylphenyl)cyclohexyl)methyl)cyclohexanecarboxamido)phenyl)acrylate] displayed an EC50 of no more than 1000 nM.

For the origin of these results see patent US20190062277A1, “FARNESOID X RECEPTOR AGONISTS AND USES THEREOF” (Metacrine, Inc., priority 2015, published 2019).
